# Measured values published in US7544666B2, “NAP derivatives” (Industrial Technology Research Institute, priority 2005, dated 2009).
# Legend:
# Caco-2 cell monolayer = assay: Permeation to Caco-2 cell monolayer; assay type: in vitro ADME, human; parameters: unit not given here; conditions: 4-hour incubation, initial concentration 500 μM in upper layer
# Protocol: The permeation of NAP and the NAP derivatives was examined using the Caco-2 cell system. Caco-2 cells (1×10^5 cells) were seeded into the polycarbonate film on the upper layer of a 12-well Transwell and incubated at 37° C. for 18 to 26 days. The TEER of the Caco cell monolayer was measured over 350 Ω×cm^2. NAP and the NAP derivatives in the HBSS were added into the upper layer of the Caco-2 cell-seeded Transwell. After 4-hour incubation, the concentration of NAP and the NAP derivatives in the upper and lower layers was measured and analyzed in comparison with the initial concentration (500 μM) by reverse phase HPLC at 210 nm.
# [1] = Stability in Hanks' balanced salt solution (HBSS); assay type: physicochemical; conditions: 37° C., relative to initial conc. in HBSS = 100.00
# Protocol: (§1) The stability of the NAP derivatives prepared by EXAMPLE 1 was measured with the system of human colon cancer cell, Caco-2 cell. Caco-2 cells (1×10^5 cells) were first seeded into a polycarbonate film on the upper layer of a 12-well Transwell and incubated for 18 to 26 days at 37° C. The TEER of the Caco-2 cell monolayer was measured over 350 Ω×cm^2. The stability of the NAP derivatives in the Hanks' balanced salt solutions (HBSS) was measured by the concentration changes of NAP and the NAP derivatives incubated in the HBSS at 37° C. for 4 hours. The stability of the NAP derivatives in the Caco-2 cell system was measured by the procedure described below. NAP and the NAP derivatives in the HBSS were added into the upper layer of the Caco-2 cell-seeded Transwell. After 4-hour incubation, the concentration of NAP and the NAP derivatives in the upper and lower layers was measured and analyzed in comparison with the initial concentration (500 μM) by reverse HPLC at 210 nm.
# [2] = tested on: scopolamine-induced amnesia rats; assay: Morris water maze in scopolamine-induced amnesia rats; assay type: in vivo, rat; conditions: 0.25 mg/kg subcutaneous, 5 min after scopolamine 1 mg/kg i.p.; FIG. 11
# Protocol: Scopolamine-induced amnesia […] were used in combination of Morris water maze, a memory and behavior analysis system, to assess the in vivo effects of the NAP derivative BMEC-NAP0701 and NAP.
# Sprague-Dawley male rats with body weight of 220-250 g obtained from the National Laboratory Animal Center, Taiwan, were caged in an air-conditioned housing with a temperature of 23±1° C. and kept on an alternating 12-hour light and 12-hour dark schedule with sufficient feed and water. […]
# Morris Water Maze was performed with a water maze device containing a stainless pool with a size of 160 cm in diameter, 50 cm in height, and 15 mm in thickness of the wall and a platform with a size of 11 cm in diameter, and 22 cm in height. […] The swimming time and track were recorded by VEDEOMEX-V video tracing system, video recorder, and monitor (Columbus Instruments) and analyzed by Water Maze Program (Columbus Instruments). […]
# Late of the third day: Two to four hours after the third day training, the platform was removed from the pool. The trained rats were separately sent to quadrant I and the swimming track was recorded for 60 sec. The time spent in finding the original platform was also recorded. […]
# Early of the fifth day: The platform was placed in the quadrant II and submerged beneath water level about 1 cm. The rats were separately sent to quadrant I and the time spent in finding the platform was recorded. […]
# Caco-2 cell = assay: Stability in the Caco-2 cell system; assay type: in vitro ADME, human; conditions: 4-hour incubation in Caco-2 Transwell; relative to initial conc. = 100.00 (500 μM)
# Protocol: as §1
smiles,measurement,setting,value
"CC[C@H](C)[C@H](NC(=O)[C@H](CO)NC(=O)[C@@H](NC(=O)[C@@H]1CCCN1C(=O)[C@H](C)NC(=O)[C@H](CC(N)=O)NC(=O)c1ccccc1)C(C)C)C(=O)N1CCC[C@H]1C(=O)N[C@@H](CCC(N)=O)C(=O)O [BMEC-NAP0701, Benzoyl-NAPVSIPQ-OH]",Conc. at the lover layer,Caco-2 cell monolayer,0.28
same,Conc. after 4-hour in HBSS,[1],98.62
same,memory improving effect (time spent in finding the platform vs scopolamine-induced rats),[2],memory improving effect similar to NAP in vivo
same,Conc. after 4-hour in Caco-2 cells,Caco-2 cell,78.97
